Tests used:
[1] = tested on: ND13 GFP cells; assay: Proliferation of cell cultures of transduced ND13 cells expressing GFP with ATRA (FIG. 3); type: cell-based, mouse; conditions: 0.1 μM or 1 μM ATRA, p=0.026 at 24 hours, p<0.001 at 48, 72 and 96 h
Source text: (§1) The expression vector encoding GFP contained to the GFP gene under control of the spleen focus-forming virus promoter, integrated into the vector pSF91 (described in detail in Hildinger et al., J. Virol. 73, 4083-4089 (1999)). The MN1 expression vector contained the human MN1 gene under the control of the same promoter in the same vector backbone.

[2] = tested on: ND13 MN1 cells; assay: Proliferation of cell cultures of transduced ND13 cells expressing MN1 with ATRA (FIG. 3); type: cell-based, mouse; conditions: 0.1 μM or 1 μM ATRA, up to 96 h
Source text: as §1

CC1=C(/C=C/C(C)=C/C=C/C(C)=C/C(=O)O)C(C)(C)CCC1 [ATRA, all-trans retinoic acid]
proliferation (cell numbers) [1]: significant reduction of proliferation | proliferation (cell numbers) [2]: no significant reduction of proliferation
